# Results published in patent US11944603B2, “Use of compound or medicinal derivative thereof in inhibiting AIM2 protein activity” (priority 2022, dated 2024).
# Legend:
# [1] = system: IL-1β mRNA in HaCaT cells; test: Screening in HaCaT cell model stimulated by OligodA-T, real-time PCR of IL-1β mRNA; assay type: cell-based; settings: 10 uM, 24 hours, OligodA-T 1 ug/mL, among 100 compounds
# Protocol: The protective ability of 100 compounds screened above against cell pyroptosis of HaCaT cells stimulated by OligodA-T is evaluated by the real-time fluorescent quantitative polymerase chain reaction (PCR) detection of IL-1β mRNA in the stimulated cells.
# 1. Positive control (PC) and negative control (NC) are set in the experimental group. An inclusion of Lip3000 (Lipofectamine™ 3000 Transfection Reagent) and OligodA-T (OligodA-T:Lip3000:P3000=1:1:25, a concentration of OligodA-T is 1 microgram per […] (ug/mL)) is used to transfect HaCat cells. Lip3000-OligodA-T and 10 micromoles per liter (uM) small molecule inhibitor are used to transfect the HaCat cells in each treatment group, and only the same amount of transfection reagent (Lip3000:P3000=1:1) is added in NC group.
# 2. Each experimental group is incubated in a cell incubator containing 5% CO2 for 24 hours at 37° C., and the cells are collected for real-time fluorescence PCR detection.
# human AIM2 protein = target: T1, human AIM2 protein (Homo sapiens, UniProt O14862); test: Affinity by surface-plasmon resonance (Biacore), amino coupling; settings: human full-length AIM2 protein, SPR; read-out: binding constant
# T1 construct: a human full-length AIM2 protein is expressed and purified firstly by pET28a vector; made in house
# T1 sequence (O14862 1-343): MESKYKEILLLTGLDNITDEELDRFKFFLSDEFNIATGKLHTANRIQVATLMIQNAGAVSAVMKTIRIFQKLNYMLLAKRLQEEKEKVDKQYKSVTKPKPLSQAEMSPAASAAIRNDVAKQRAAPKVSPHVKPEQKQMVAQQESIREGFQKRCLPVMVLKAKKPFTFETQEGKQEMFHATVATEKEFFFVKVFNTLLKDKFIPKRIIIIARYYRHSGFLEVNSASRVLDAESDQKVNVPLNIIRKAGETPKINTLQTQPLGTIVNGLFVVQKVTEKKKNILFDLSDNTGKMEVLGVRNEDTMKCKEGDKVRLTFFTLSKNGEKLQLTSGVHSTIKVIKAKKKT
# Protocol: (§1) In the embodiment of the disclosure, the affinity between SLD-1 and human AIM2 protein is detected. Specifically, a human full-length AIM2 protein is expressed and purified firstly by pET28a vector, and then the affinity is determined by CMS chip amino-coupling method through a surface-plasmon resonance (SPR) method of Biacore.
# [2] = system: AIM2 downstream protein in HaCaT cells; test: HaCaT cell model, expression of AIM2 downstream protein; assay type: cell-based; settings: 25 uM
# Protocol: (§2) (1) A positive control (PC), a negative control (NC) and respective treatment groups are set. An inclusion of Lip3000 (Lipofectamine™ 3000 Transfection Reagent) and OligodA-T (OligodA-T:Lip3000:P3000=1:1:25, a concentration of OligodA-T is 1 ug/mL) is used to transfect HaCat cells, and only the same amount of transfection reagent (Lip3000:P3000=1:1) is added in NC group. The HaCat cells are co-transfected with an inclusion of Lip3000-OligodA-T at gradient doses (0.1 uM, 1 uM, 5 uM, 10 uM and 25 uM) of SLD-1 in the respective treatment groups.
# (5) Moreover, the expression of AIM2 downstream protein in the HaCaT cells treated with 25 uM SLD-1 is detected, and results are shown in FIG. 12.
# HaCaT cells = test: HaCaT cell model, cell state under microscope (pyroptosis); assay type: cell-based; settings: 25 uM, microscope 100 times and 400 times
# Protocol: as §2
# (3) In this situation, a cell state of 25 uM gradient is observed under microscope fields of 100 times and 400 times, and results are shown in FIG. 10.
# [3] = system: T lymphocytes of TCRγ/CD3+ RORγt in mouse skin; test: IMQ psoriasis mouse model: flow cytometry of skin lymphocytes; assay type: in vivo, C57/BL6 mice; settings: 2.5 mg/kg, compared with IMQ mice without SLD-1
# Protocol: (§3) Dimethyl sulfoxide (DMSO) is used to dissolve SLD-1 powder, the powder is weighed according to different dosage, then diluted with β-cyclodextrin, and a final concentration of DMSO shall not exceed 5%. The dose gradients of SLD-1 set are 0 mg/kg, 2.5 mg/kg, 5 mg/kg and 10 mg/kg respectively. Each mouse is calculated as 20 grams (g), and 0 mg, 0.05 mg, 0.1 mg and 0.2 mg of SLD-1 are administered respective mice every day.
# (§4) Seven-week-old C57/BL6 mice are selected, fed and modeled in a […] (SPF) environment. The experimental groups are as follows: • (1) mouse skin smeared with IMQ and 0 mg/kg of SLD-1; • (2) mouse skin smeared with IMQ and 2.5mg/kg of SLD-1; • (3) mouse skin smeared with IMQ and 5 mg/kg of SLD-1; • (4) mouse skin smeared with IMQ and 10 mg/kg of SLD-1; • (5) mouse skin smeared with Vaseline and 0 mg/kg of SLD-1; • (6) mouse skin smeared with Vaseline and 2.5mg/kg of SLD-1; • (7) mouse skin smeared with Vaseline and 5 mg/kg of SLD-1; and • (8) mouse skin smeared with Vaseline and 10 mg/kg of SLD-1.
# Six mice in each group are shaved back hair to make a exposed skin reach 4 square centimeters. A start date of the experiment is set as day 0 and an end date is set as day 6. […] The mouse skins are scored every day, the mice are sacrificed on day 6, and skin tissue is taken for a series of tests. […]
# [4] = system: AIM2 pathway in mouse skin; test: IMQ psoriasis mouse model: AIM2 pathway gene transcription and protein levels in skin; assay type: in vivo, C57/BL6 mice
# Protocol: as §3, §4
# (§5) Six mice in each group are shaved back hair to make a exposed skin reach 4 square centimeters. A start date of the experiment is set as day 0 and an end date is set as day 6. From day 0 to Day 5, 100 μL medicine solution is taken every day and evenly smeared mouse skin to absorb. From day 2 to day 5, each mouse 62.5 mg IMQ is smeared every day after 20 minutes of SLD-1 inhibitor. The mouse skins are scored every day, the mice are sacrificed on day 6, and skin tissue is taken for a series of tests.
# IMQ mice = test: IMQ psoriasis mouse model: PASI scores, skin phenotype, skin pathology; assay type: in vivo, C57/BL6 mice
# Protocol: as §3, §4, §5
# PASI scores, skin phenotypes and skin pathological phenotypes of the above IMQ modeled mice are shown in FIG. 13, FIG. 14 and FIG. 15 respectively.
# mouse AIM2 protein = target: T2, mouse AIM2 protein (Mus musculus, UniProt Q91VJ1); test: Affinity by surface plasmon resonance (Biacore), amino coupling; settings: mouse full-length AIM2 protein, SPR; read-out: binding constant
# T2 construct: a mouse full-length AIM2 protein is expressed and purified firstly by pET28a vector; made in house
# T2 sequence (Q91VJ1 1-354): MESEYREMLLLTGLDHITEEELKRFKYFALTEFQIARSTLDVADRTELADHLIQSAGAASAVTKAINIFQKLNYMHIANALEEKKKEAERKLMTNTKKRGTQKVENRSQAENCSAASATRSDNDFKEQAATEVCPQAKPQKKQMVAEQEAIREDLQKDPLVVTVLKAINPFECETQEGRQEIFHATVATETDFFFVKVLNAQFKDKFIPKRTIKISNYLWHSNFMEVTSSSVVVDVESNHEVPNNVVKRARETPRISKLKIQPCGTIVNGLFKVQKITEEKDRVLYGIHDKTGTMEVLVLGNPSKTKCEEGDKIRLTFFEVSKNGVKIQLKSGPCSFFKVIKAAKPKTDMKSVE
# Protocol: as §1, with “mouse” for “human”, “amino coupling” for “amino-coupling”, “by” for “through”, “surface plasmon” for “surface-plasmon”
# [5] = system: AIM2 pathway in HaCaT cells; test: HaCaT cell model, real-time fluorescence PCR of IL-1β and AIM2 pathway genes; assay type: cell-based; settings: 25 uM
# Protocol: as §2
# (2) The positive control (PC), negative control (NC) and the respective treatment groups are incubated in a cell incubator containing 5% CO2 at 37° C. for 24 hours, and the cells are collected for real-time fluorescence PCR detection to observe the effect of different doses of inhibitors on the activation of AIM2 pathway in the HaCaT cells.
# (4) In addition, the effect of 25 uM of SLD-1 on the transcription level of genes in the AIM2 pathway of the HaCat cell model is detected, and results are shown in FIG. 11.
structure (smiles),measurement,setting,value
Cn1c(=O)n(C)c2cc(C(O)COc3ccc(CNC4C5CC6CC(C5)CC4C6)cc3)ccc21 (stereo not drawn) [SLD-1],inhibitory effect on IL-1β mRNA compared with the positive control,[1],most significant inhibitory effect (p<0.0001)
same,Kd,human AIM2 protein,10.3 µM
same,AIM2 downstream procaspase-1 and proIL-1β expression,[2],no effect
same,content of caspase-1p20 and IL-1βp17,[2],reduces the content of caspase-1p20 and IL-1βp17
same,"cell state (pyroptosis, density, adhesion)",HaCaT cells,"close to that of the NC, with very few transparent pyroptosis cells, a high cell density and a good adhesion"
same,proportion of TCRγ/CD3+ RORγt in skin lymphocytes,[3],significantly lower
same,AIM2 downstream procaspase-1 and proil-1β in the mouse skin,[4]; 2.5 mg/kg,no effect
same,content of caspase-1p20 and IL-1βp17 in the mouse skin,[4]; 2.5 mg/kg,decreases the content of caspase-1p20 and IL-1βp17
same,transcription levels of AIM2 pathway genes in the mouse skin,[4]; respective groups,no significant difference
same,reduction effect on inflammatory phenotype of IMQ mice,IMQ mice; 2.5 mg/kg smeared on skin,the most significant
same,"reduction effect on inflammatory phenotype of IMQ mice, comparison of doses",IMQ mice; 5 mg/kg and 10 mg/kg smeared on skin,no difference between 5 mg/kg and 10 mg/kg
same,"inflammatory phenotype of IMQ mice (PASI, skin phenotype, pathology)","IMQ mice; three doses 2.5, 5, 10 mg/kg smeared on skin, day 0 to day 5",reduced the inflammatory phenotype of IMQ mice to varying degrees
same,Kd,mouse AIM2 protein,10.3 µM
same,transcription of major genes in the AIM2 pathway compared with the PC,[5],significantly decreased
same,IL-1β transcription levels compared to the PC,"[5]; of gradient 0.1, 1, 5, 10, 25 uM, 24 hours",reduced IL-β transcription levels in the HaCat cells the most
